Data: patent publication US9771352B2, “Hydroxyalkyl-substituted phenyltriazole derivatives and uses thereof” (BAYER PHARMA AKTIENGESELLSCHAFT, priority 2014, dated 2017)

Experiments:
human V2 receptor = molecular target: T1, human V2 receptor (Homo sapiens, UniProt P30518); experiment: Cellular in vitro assay for determining vasopressin receptor activity, V2 receptor cell line (CRE-luciferase); assay type: cell-based; conditions: CHO cell line transfected with human V2 receptor; [Arg8]-vasopressin at EC50; compounds of the invention (Table 1A); read-out: IC50 hV2
T1 construct: expressed in transfected cells; host or cells: CHO K1 (ATCC) expressing firefly luciferase under a CRE-responsive promoter
T1 sequence (P30518 whole entry): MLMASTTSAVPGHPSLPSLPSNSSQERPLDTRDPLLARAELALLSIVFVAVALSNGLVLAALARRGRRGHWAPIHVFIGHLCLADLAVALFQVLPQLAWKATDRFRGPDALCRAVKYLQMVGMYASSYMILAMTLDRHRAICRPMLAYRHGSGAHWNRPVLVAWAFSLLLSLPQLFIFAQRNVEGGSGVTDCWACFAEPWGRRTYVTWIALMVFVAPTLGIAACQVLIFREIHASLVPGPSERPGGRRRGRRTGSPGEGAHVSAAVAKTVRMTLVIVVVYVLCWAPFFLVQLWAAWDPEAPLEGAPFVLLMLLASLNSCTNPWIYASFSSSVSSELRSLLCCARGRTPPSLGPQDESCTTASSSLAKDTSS
Experimental: (§1) The identification of agonists and antagonists of the V1a and V2 vasopressin receptors from humans, rats and dogs as well as the quantification of the activity of the compounds of the invention is carried out using recombinant cell lines. These cell lines originally derive from a hamster's ovary epithelial cell (Chinese Hamster Ovary, CHO K1, ATCC: American Type Culture Collection, Manassas, Va. 20108, USA). The test cell lines constitutively express the human, rat or dog V1a or V2 receptors. In case of the […] V1a receptors, cells are also stably transfected with a modified form of the calcium-sensitive photoproteins aequorin (human and rat V1a) or obelin (dog V1a), which, after reconstitution with the cofactor coelenterazine, emit light when there are increases in free calcium concentrations [Rizzuto R, Simpson A W, Brini M, Pozzan T, Nature 358, 325-327 (1992); Illarionov B A, Bondar V S, Illarionova V A, Vysotski E S, Gene 153 (2), 273-274 (1995)]. The resulting vasopressin receptor cells react to stimulation of the recombinantly expressed V1a receptors by intracellular release of calcium ions, which can be quantified by the resulting photoprotein luminescence. The Gs-coupled V2 receptors are stably transfected into cell lines expressing the gene for firefly luciferase under control of a CRE-responsible promoter. Activation of V2 receptors induces the activation of the CRE-responsive promoter via cAMP increase, thereby inducing the expression of firefly luciferase. The light emitted by photoproteins of V1a cell lines as well as the light emitted by firefly luciferase of V2 cell lines corresponds to the activation or inhibition of the respective vasopressin receptor. The bioluminescence of the cell lines is detected using a suitable luminometer [Milligan G, Marshall F, Rees S, Trends in Pharmacological Sciences 17, 235-237 (1996)].
On the day before the assay, the cells are plated out in culture medium (DMEM/F12, 2% FCS, 2 mM glutamine, 10 mM HEPES) in 384-well microtiter plates and kept in a cell incubator (96% humidity, 5% v/v CO2, 37° C.). […] Upon addition of the cell lysis reagent Triton and the substrate luciferin, luminescence of firefly luciferase is measured in a luminometer.
(§2) Table 1A below lists individual IC50 values for the compounds of the invention (including diastereomeric mixtures as well as separated, enantiopure diastereomers) that were obtained from cell lines transfected with the human V1a or V2 receptor: […]

human V1a receptor = molecular target: T2, human V1a receptor (Homo sapiens, UniProt P37288); experiment: Cellular in vitro assay for determining vasopressin receptor activity, V1a receptor cell line (photoprotein luminescence); assay type: cell-based; conditions: CHO cell line transfected with human V1a receptor; [Arg8]-vasopressin at EC50; compounds of the invention (Table 1A); read-out: IC50 hV1a
T2 construct: expressed in transfected cells; host or cells: CHO K1 (ATCC), also stably transfected with modified aequorin
T2 sequence (P37288 whole entry): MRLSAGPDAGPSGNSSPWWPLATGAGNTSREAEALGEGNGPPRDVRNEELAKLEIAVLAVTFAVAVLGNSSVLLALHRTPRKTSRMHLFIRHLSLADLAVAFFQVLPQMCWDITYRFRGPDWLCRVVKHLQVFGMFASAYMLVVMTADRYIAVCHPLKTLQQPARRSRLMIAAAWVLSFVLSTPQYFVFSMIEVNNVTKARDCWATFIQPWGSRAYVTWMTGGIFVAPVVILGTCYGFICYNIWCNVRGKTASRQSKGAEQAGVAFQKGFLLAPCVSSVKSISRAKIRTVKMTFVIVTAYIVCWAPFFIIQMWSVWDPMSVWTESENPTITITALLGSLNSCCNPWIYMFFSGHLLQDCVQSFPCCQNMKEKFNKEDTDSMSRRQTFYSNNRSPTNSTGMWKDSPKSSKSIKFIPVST
Experimental: as §1
On the day before the assay, the cells are plated out in culture medium (DMEM/F12, 2% FCS, 2 mM glutamine, 10 mM HEPES, 5 μg/ml coelenterazine) in 384-well microtiter plates and kept in a cell incubator (96% humidity, 5% v/v CO2, 37° C.). On the day of the assay, test compounds in various concentrations are placed for 10 minutes in the wells of the microtiter plate before the agonist [Arg^8]-vasopressin at EC50 concentration is added. The resulting light signal is measured immediately in the luminometer.
as §2

Row | IC50 (human V2 receptor) | IC50 (human V1a receptor) | Compound
1 | 2.3 nM | 0.4 nM | O=c1n(Cc2nc(CO)n(-c3cc(F)ccc3Cl)n2)nc(-c2ccc(Cl)cc2)n1C[C@H](O)C(F)(F)F [Example 9, 2-{[1-(2-Chloro-5-fluorophenyl)-5-(hydroxymethyl)-1H-1,2,4-triazol-3-yl]methyl}-5-(4-chlorophenyl)-4-[(2S)-3,3,3-trifluoro-2-hydroxypropyl]-2,4-dihydro-3H-1,2,4-triazol-3-one]
2 | 1.5 nM | 0.2 nM | CC(O)c1nc(Cn2nc(-c3ccc(Cl)cc3)n(C[C@H](O)C(F)(F)F)c2=O)nn1-c1cc(F)ccc1Cl (mixture of isomers) [Example 58, 2-({1-(2-Chloro-5-fluorophenyl)-5-[(1RS)-1-hydroxyethyl]-1H-1,2,4-triazol-3-yl}methyl)-5-(4-chlorophenyl)-4-[(2S)-3,3,3-trifluoro-2-hydroxypropyl]-2,4-dihydro-3H-1,2,4-triazol-3-one]
3 | 8.2 nM | 38.2 nM | CC(O)c1nc(Cn2nc(-c3ccc(Cl)cc3)n(C[C@H](O)C(F)(F)F)c2=O)nn1-c1cccc(OC(F)F)c1 (single isomer, unassigned) [Example 57]
4 | 1.6 nM | 39.7 nM | CC(O)c1nc(Cn2nc(-c3ccc(Cl)cc3)n(C[C@H](O)C(F)(F)F)c2=O)nn1-c1cccc(Cl)c1F (single isomer, unassigned) [Example 54]
5 | 2.3 nM | 1.6 nM | CCc1ccccc1-n1nc(Cn2nc(-c3ccc(Cl)cc3)n(C[C@H](O)C(F)(F)F)c2=O)nc1C(C)O (single isomer, unassigned) [Example 33]
6 | 1.4 nM | 12.4 nM | CC(O)c1nc(Cn2nc(-c3ccc(Cl)cc3)n(C[C@H](O)C(F)(F)F)c2=O)nn1-c1cccc(C(F)F)c1 (mixture of isomers) [Example 19, 5-(4-Chlorophenyl)-2-({1-[3-(difluoromethyl)phenyl]-5-[(1RS)-1-hydroxyethyl]-1H-1,2,4-triazol-3-yl}methyl)-4-[(2S)-3,3,3-trifluoro-2-hydroxypropyl]-2,4-dihydro-3H-1,2,4-triazol-3-one]
7 | 2.3 nM | 24.4 nM | CC(O)c1nc(Cn2nc(-c3ccc(Cl)cc3)n(C[C@H](O)C(F)(F)F)c2=O)nn1-c1cccc(C(F)(F)F)c1 (mixture of isomers) [Example 22, 5-(4-Chlorophenyl)-2-({5-[(1RS)-1-hydroxyethyl]-1-[3-(trifluoromethyl)phenyl]-1H-1,2,4-triazol-3-yl}methyl)-4-[(2S)-3,3,3-trifluoro-2-hydroxypropyl]-2,4-dihydro-3H-1,2,4-triazol-3-one]
8 | 10.7 nM | 1.2 nM | O=c1n(Cc2nc(CO)n(-c3ccccc3C(F)(F)F)n2)nc(-c2ccc(Cl)cc2)n1C[C@H](O)C(F)(F)F [Example 8, 5-(4-Chlorophenyl)-2-({5-(hydroxymethyl)-1-[2-(trifluoromethyl)phenyl]-1H-1,2,4-triazol-3-yl}-methyl)-4-[(2S)-3,3,3-trifluoro-2-hydroxypropyl]-2,4-dihydro-3H-1,2,4-triazol-3-one]
9 | 7.7 nM | 43.7 nM | CC(O)c1nc(Cn2nc(-c3ccc(Cl)cc3)n(C[C@H](O)C(F)(F)F)c2=O)nn1-c1cc(F)cc(F)c1 (single isomer, unassigned) [Example 27]
10 | 3.5 nM | 1.5 nM | COc1ccc(F)cc1-n1nc(Cn2nc(-c3ccc(Cl)cc3)n(C[C@H](O)C(F)(F)F)c2=O)nc1C(C)O (single isomer, unassigned) [Example 39]
11 | 6.6 nM | 2.9 nM | CC(O)c1nc(Cn2nc(-c3ccc(Cl)cc3)n(C[C@H](O)C(F)(F)F)c2=O)nn1-c1cccc(F)c1 (mixture of isomers) [Example 75, 5-(4-Chlorophenyl)-2-({1-(3-fluorophenyl)-5-[(1RS)-1-hydroxyethyl]-1H-1,2,4-triazol-3-yl}-methyl)-4-[(2S)-3,3,3-trifluoro-2-hydroxypropyl]-2,4-dihydro-3H-1,2,4-triazol-3-one]
12 | 0.2 nM | 1.3 nM | Cc1cccc(-n2nc(Cn3nc(-c4ccc(Cl)cc4)n(C[C@H](O)C(F)(F)F)c3=O)nc2C(C)O)c1 (mixture of isomers) [Example 28, 5-(4-Chlorophenyl)-2-({5-[(1RS)-1-hydroxyethyl]-1-(3-methylphenyl)-1H-1,2,4-triazol-3-yl}-methyl)-4-[(2S)-3,3,3-trifluoro-2-hydroxypropyl]-2,4-dihydro-3H-1,2,4-triazol-3-one]
13 | 1.3 nM | 3.3 nM | CC(O)c1nc(Cn2nc(-c3ccc(Cl)cc3)n(C[C@H](O)C(F)(F)F)c2=O)nn1-c1cccc(F)c1Cl (single isomer, unassigned) [Example 68]
14 | 3 nM | 3.1 nM | CC(O)c1nc(Cn2nc(-c3ccc(Cl)cc3)n(C[C@H](O)C(F)(F)F)c2=O)nn1-c1cc(F)cc(F)c1 (single isomer, unassigned) [Example 26]
15 | 0.7 nM | 0.5 nM | COc1ccc(F)cc1-n1nc(Cn2nc(-c3ccc(Cl)cc3)n(C[C@H](O)C(F)(F)F)c2=O)nc1C(C)O (mixture of isomers) [Example 37, 5-(4-Chlorophenyl)-2-({1-(5-fluoro-2-methoxyphenyl)-5-[(1RS)-1-hydroxyethyl]-1H-1,2,4-triazol-3-yl}methyl)-4-[(2S)-3,3,3-trifluoro-2-hydroxypropyl]-2,4-dihydro-3H-1,2,4-triazol-3-one]
16 | 7.2 nM | 1.5 nM | CC(O)c1nc(Cn2nc(-c3ccc(Cl)cc3)n(C[C@H](O)C(F)(F)F)c2=O)nn1-c1ccccc1F (mixture of isomers) [Example 40, 5-(4-Chlorophenyl)-2-({1-(2-fluorophenyl)-5-[(1RS)-1-hydroxyethyl]-1H-1,2,4-triazol-3-yl}-methyl)-4-[(2S)-3,3,3-trifluoro-2-hydroxypropyl]-2,4-dihydro-3H-1,2,4-triazol-3-one]
17 | 5.1 nM | 8.1 nM | CC(O)c1nc(Cn2nc(-c3ccc(Cl)cc3)n(C[C@H](O)C(F)(F)F)c2=O)nn1-c1cccc(F)c1F (mixture of isomers) [Example 64, 5-(4-Chlorophenyl)-2-({1-(2,3-difluorophenyl)-5-[(1RS)-1-hydroxyethyl]-1H-1,2,4-triazol-3-yl}-methyl)-4-[(2S)-3,3,3-trifluoro-2-hydroxypropyl]-2,4-dihydro-3H-1,2,4-triazol-3-one]
18 | 6 nM | 3.1 nM | CC(O)c1nc(Cn2nc(-c3ccc(Cl)cc3)n(C[C@H](O)C(F)(F)F)c2=O)nn1-c1ccccc1 (mixture of isomers) [Example 16, 5-(4-Chlorophenyl)-2-({5-[(1RS)-1-hydroxyethyl]-1-phenyl-1H-1,2,4-triazol-3-yl}methyl)-4-[(2S)-3,3,3-trifluoro-2-hydroxypropyl]-2,4-dihydro-3H-1,2,4-triazol-3-one]
19 | 22.3 nM | 3 nM | CC(O)c1nc(Cn2nc(-c3ccc(Cl)cc3)n(C[C@H](O)C(F)(F)F)c2=O)nn1-c1cc(Cl)ccc1Cl (single isomer, unassigned) [Example 51]
20 | 0.9 nM | 12.2 nM | CC(O)c1nc(Cn2nc(-c3ccc(Cl)cc3)n(C[C@H](O)C(F)(F)F)c2=O)nn1-c1cccc(C(F)(F)F)c1 (single isomer, unassigned) [Example 23]
21 | 1.1 nM | 1.3 nM | COc1ccccc1-n1nc(Cn2nc(-c3ccc(Cl)cc3)n(C[C@H](O)C(F)(F)F)c2=O)nc1C(C)O (single isomer, unassigned) [Example 12]
22 | 5.1 nM | 46.3 nM | C[C@@H](O)c1nc(Cn2nc(-c3ccc(Cl)cc3)n(C[C@H](O)C(F)(F)F)c2=O)nn1-c1cccc(Cl)c1 [Example 80, 5-(4-Chlorophenyl)-2-({1-(3-chlorophenyl)-5-[(1R)-1-hydroxyethyl]-1H-1,2,4-triazol-3-yl}-methyl)-4-[(2S)-3,3,3-trifluoro-2-hydroxypropyl]-2,4-dihydro-3H-1,2,4-triazol-3-one]
